Experimental data taken from patent US8822449B2, “Substituted aminoindanes and analogs thereof, and the pharmaceutical use thereof” (Sanofi, priority 2008, dated 2014).
pIC50: −log10 of the molar value.

Target: T1, sodium-proton exchanger of subtype 3 (NHE3) (Homo sapiens, UniProt P48764)
T1 construct: expressed in transfected cells
T1 sequence (P48764 26-834): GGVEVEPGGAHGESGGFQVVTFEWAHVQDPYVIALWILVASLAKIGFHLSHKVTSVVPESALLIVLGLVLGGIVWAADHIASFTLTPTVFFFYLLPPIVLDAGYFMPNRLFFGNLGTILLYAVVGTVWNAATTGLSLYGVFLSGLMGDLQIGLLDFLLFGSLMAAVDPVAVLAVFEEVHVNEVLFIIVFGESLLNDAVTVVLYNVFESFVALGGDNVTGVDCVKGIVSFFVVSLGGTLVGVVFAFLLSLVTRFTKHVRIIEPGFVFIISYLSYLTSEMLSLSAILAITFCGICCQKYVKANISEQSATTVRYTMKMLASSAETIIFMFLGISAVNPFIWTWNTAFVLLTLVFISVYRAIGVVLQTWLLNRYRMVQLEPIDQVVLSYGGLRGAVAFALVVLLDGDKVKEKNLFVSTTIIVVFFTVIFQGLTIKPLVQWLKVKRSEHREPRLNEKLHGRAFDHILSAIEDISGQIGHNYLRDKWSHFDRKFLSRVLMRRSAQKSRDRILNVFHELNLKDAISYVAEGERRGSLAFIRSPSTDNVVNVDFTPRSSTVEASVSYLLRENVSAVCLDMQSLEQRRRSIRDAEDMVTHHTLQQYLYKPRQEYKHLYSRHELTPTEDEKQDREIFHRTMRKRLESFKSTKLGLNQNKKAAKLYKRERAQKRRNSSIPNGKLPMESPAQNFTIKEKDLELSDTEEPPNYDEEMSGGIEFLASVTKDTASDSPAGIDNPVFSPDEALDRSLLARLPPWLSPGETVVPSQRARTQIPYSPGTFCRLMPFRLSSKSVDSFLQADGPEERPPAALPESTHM
Test: Recovery of intracellular pH (pHi) after acidification in LAP1 cells stably expressing NHE3 (BCECF fluorescence, FLIPR)
Format: cell-based
Conditions: Activity range (inhibitory effect on NHE3), LAP1 cells stably expressing NHE3; pH recovery after acidification; range 1 is % inhibition at 10 μM

Row | SMILES | pIC50
1 | CN(C)S(=O)(=O)c1ccc(O[C@@H]2c3ccccc3C[C@H]2N2CCCC2)c(Cl)c1Cl (racemic) [Example 362, 2,3-dichloro-N,N-dimethyl-4-(rac-trans-(1,2)-2-pyrrolidin-1-ylindan-1-yloxy)benzenesulfonamide] | > 6.00
2 | CC(=O)Nc1cccc(O[C@H]2c3cc(Cl)cc(Cl)c3C[C@@H]2N2C[C@H]3CC[C@@H](C2)N3)c1 [Example 664, N-[3-(trans-(1S,2S)-4,6-dichloro-2-3,8-diazabicyclo[3.2.1]oct-3-ylindan-1-yloxy)phenyl]acetamide] | > 6.00

Same assay, conditions: LAP1 cells stably expressing NHE3; pH recovery after acidification; range 1 is % inhibition at 10 μM; read-out: Activity range (inhibitory effect on NHE3)

Row | SMILES | pIC50 | inhibition at 10 µM [%]
3 | N[C@H]1CCCN([C@H]2CCc3ccccc3[C@@H]2Oc2ccc(NC(=O)OCc3ccccc3)cc2)C1 (racemic) [Example 239, {4-[rac-trans-(1,2)-2-((S)-3-aminopiperidin-1-yl)-1,2,3,4-tetrahydronaphthalen-1-yloxy]phenyl}carbamic acid benzyl ester] |  | 20 to 50
4 | CN(C)S(=O)(=O)c1cc(Cl)c(O[C@H]2c3ccccc3C[C@@H]2N2CCCC2)c(Cl)c1 (racemic) [Example 403, 3,5-dichloro-N,N-dimethyl-4-(rac-trans-(1,2)-2-pyrrolidin-1-ylindan-1-yloxy)benzenesulfonamide] | 5.00 to 6.00 | 
5 | N#Cc1ccc(O[C@H]2c3ccccc3CC[C@@H]2N2CCC[C@@H](N)C2)cc1F (racemic) [Example 510, 4-[rac-trans-(1,2)-2-((R)-3-aminopiperidin-1-yl)-1,2,3,4-tetrahydronaphthalen-1-yloxy]-2-fluorobenzonitrile] | > 6.00 | 
6 | Cc1cc(O[C@@H]2c3ccccc3C[C@H]2N2C[C@H]3CNC[C@H]3C2)cc(C)c1C#N (racemic) [Example 505, 4-[rac-trans-(1,2)-2-(Hexahydropyrrolo[3,4-c]pyrrol-2-yl)indan-1-yloxy]-2,6-dimethylbenzonitrile] | 5.00 to 6.00 | 
7 | N[C@H]1CCCN([C@H]2CCc3ccccc3[C@@H]2Oc2ccc(Br)cc2-c2cc[nH]n2)C1 (racemic) [Example 203, (S)-1-{rac-trans-(1,2)-1-[4-bromo-2-(1H-pyrazol-3-yl)phenoxy]-1,2,3,4-tetrahydronaphthalen-2-yl}piperidin-3-ylamine] |  | 20 to 50
8 | Fc1ccc(O[C@H]2c3ccccc3C[C@@H]2N2CCCC2)c(-c2ccn[nH]2)c1 [Example 575, 5-[5-fluoro-2-(trans-(1S,2S)-2-pyrrolidin-1-ylindan-1-yloxy)phenyl]-1H-pyrazole] |  | 20 to 50
9 | CCN(CC)[C@@H]1Cc2ccccc2[C@H]1Oc1ccc2sc(C)nc2c1 (racemic) [Example 625, Diethyl-[rac-trans-(1,2)-1-(2-methylbenzothiazol-5-yloxy)indan-2-yl]amine] | 5.00 to 6.00 | 
10 | NS(=O)(=O)c1ccc(O[C@H]2c3ccccc3C[C@@H]2CN2CCOCC2)c(F)c1 (racemic) [Example 449, 3-fluoro-4-(2-morpholin-4-ylmethylindan-1-yloxy)benzenesulfonamide] |  | 20 to 50
11 | Cc1cc(O[C@H]2c3cc(F)cc(Cl)c3C[C@@H]2N2CCCC2)ccc1S(C)(=O)=O (racemic) [Example 282, 1-[rac-trans-(1,2)-4-chloro-6-fluoro-1-(4-methanesulfonyl-3-methylphenoxy)indan-2-yl]pyrrolidine] |  | 20 to 50
12 | CC(=O)Nc1cccc(O[C@H]2c3ccccc3C[C@@H]2N2CCCCCC2)c1 (racemic) [Example 636, N-[3-(rac-trans-(1,2)-2-azepan-1-ylindan-1-yloxy)phenyl]acetamide] | > 6.00 | 
13 | N[C@@H]1CCCN([C@@H]2Cc3ccccc3[C@H]2Oc2cccc3[nH]ccc23)C1 (racemic) [Example 30, (R)-1-[rac-trans-(1,2)-1-(1H-indol-4-yloxy)indan-2-yl]piperidin-3-ylamine] | 5.00 to 6.00 | 
14 | CN(C1CCCC1)[C@@H]1Cc2ccccc2[C@H]1Oc1ccc(S(C)(=O)=O)cc1 (racemic) [Example 730, Cyclopentyl-[rac-trans-(1,2)-1-(4-methanesulfonyl-phenoxy)-indan-2-yl]-methyl-amine] | 5.00 to 6.00 | 

More lines, now with the values ahead:

Row | pIC50 | inhibition at 10 µM [%] | SMILES
15 | > 6.00 |  | Cc1nnc(C)n1-c1ccc(O[C@H]2c3cc(Cl)ccc3C[C@@H]2N2CC[C@@H](O)C2)cc1 [Example 145, (R)-1-{trans-(1S,2S)-6-chloro-1-[4-(3,5-dimethyl-[1,2,4]triazol-4-yl)phenoxy]indan-2-yl}pyrrolidin-3-ol]
16 | > 6.00 |  | CC(=O)Nc1cccc(O[C@H]2c3cc(Cl)cc(Cl)c3C[C@@H]2N2CC[C@@H](O)C2)c1 [Example 696, N-{3-[trans-(1S,2S)-4,6-dichloro-2-((R)-3-hydroxypyrrolidin-1-yl)indan-1-yloxy]phenyl}acetamide]
17 | > 6.00 |  | CC(=O)Nc1cccc(O[C@H]2c3cc(F)ccc3C[C@@H]2N2CCCC2)c1 (racemic) [Example 661, N-[3-(rac-trans-(1,2)-6-fluoro-2-pyrrolidin-1-ylindan-1-yloxy)phenyl]acetamide]
18 | 5.00 to 6.00 |  | Cc1nc2cc(O[C@@H]3c4ccccc4C[C@H]3N3CCC(CN)C3)ccc2s1 (mixture of isomers) [Example 608, C-{1-[rac-trans-(1,2)-1-(2-methylbenzothiazol-5-yloxy)indan-2-yl]pyrrolidin-3-yl}methylamine]
19 | 5.00 to 6.00 |  | NC(=O)c1cccc(O[C@@H]2c3ccccc3C[C@H]2N2CCC[C@H](N)C2)c1 (racemic) [Example 413, 3-[rac-trans-(1,2)-2-((S)-3-aminopiperidin-1-yl)indan-1-yloxy]benzamide]
20 | > 6.00 |  | CS(=O)(=O)c1ccc(O[C@H]2c3ccccc3C[C@@H]2N2CCC[C@@H](N)C2)cc1 [Example 95, (R)-1-[trans-(1S,2S)-1-(4-methanesulfonylphenoxy)indan-2-yl]piperidin-3-ylamine]
21 | > 6.00 |  | N[C@@H]1CCCN([C@H]2Cc3c(Cl)cc(Cl)cc3[C@@H]2Oc2ccc(S(N)(=O)=O)cc2)C1 [Example 480, 4-[(1S,2S)-2-((R)-3-aminopiperidin-1-yl)-4,6-dichloroindan-1-yloxy]benzenesulfonamide]
22 |  | 20 to 50 | CS(=O)(=O)c1ccc(O[C@H]2c3cc(Cl)cc(Cl)c3C[C@@H]2N2CCNC(C(F)(F)F)C2)cc1 (mixture of isomers) [Example 301, 1-[trans-(1S,2S)-4,6-dichloro-1-(4-methanesulfonylphenoxy)indan-2-yl]-3-trifluoromethylpiperazine]
23 | > 6.00 |  | C[C@@H]1CN([C@H]2Cc3c(Cl)cc(Cl)cc3[C@@H]2Oc2ccc(S(C)(=O)=O)cc2)CCN1 [Example 101, (R)-1-[trans-(1S,2S)-4,6-dichloro-1-(4-methanesulfonylphenoxy)indan-2-yl]-3-methylpiperazine]
24 | 5.00 to 6.00 |  | Cc1nnc(C)n1-c1ccc(O[C@H]2c3ccccc3C[C@@H]2N2CCC[C@@H](N)C2)cc1 [Example 121, (R)-1-{trans-(1S,2S)-1-[4-(3,5-dimethyl-[1,2,4]triazol-4-yl)phenoxy]indan-2-yl}piperidin-3-ylamine]
25 |  | 20 to 50 | CN(C)Cc1ccc(O[C@H]2c3ccccc3CC[C@@H]2N2CCC[C@@H](N)C2)cc1 (racemic) [Example 67, (R)-1-[rac-trans-(1,2)-1-(4-dimethylaminomethylphenoxy)-1,2,3,4-tetrahydronaphthalen-2-yl]piperidin-3-ylamine]
26 |  | 20 to 50 | Cc1ccc(O[C@H]2c3ccccc3CC[C@@H]2N2CCC[C@@H](N)C2)c(Cl)c1 (racemic) [Example 38, (R)-1-[rac-trans-(1,2)-1-(2-chloro-4-methylphenoxy)-1,2,3,4-tetrahydronaphthalen-2-yl]piperidin-3-ylamine]
27 | 5.00 to 6.00 |  | N#Cc1ccc(O[C@@H]2c3ccccc3C[C@H]2N2CCC[C@@H](N)C2)cc1Cl (racemic) [Example 521, 4-[rac-trans-(1,2)-2-((R)-3-aminopiperidin-1-yl)indan-1-yloxy]-2-chlorobenzonitrile]
28 | 5.00 to 6.00 |  | CC(=O)Nc1cccc(O[C@H]2c3ccccc3C[C@@H]2N2CC[C@@H](CO)C2)c1 (racemic) [Example 680, N-{3-[rac-trans-(1,2)-2-((R)-3-hydroxymethylpyrrolidin-1-yl)indan-1-yloxy]phenyl}acetamide]
29 | > 6.00 |  | Cc1nnc(C)n1-c1ccc(O[C@H]2c3cc(Cl)ccc3C[C@@H]2N2CC[C@@H](O)C2)c(Cl)c1 [Example 139, (R)-1-{trans-(1S,2S)-6-chloro-1-[2-chloro-4-(3,5-dimethyl-[1,2,4]triazol-4-yl)phenoxy]indan-2-yl}pyrrolidin-3-ol]
30 | 5.00 to 6.00 |  | CS(=O)(=O)c1ccc(O[C@H]2c3cc(F)ccc3C[C@@H]2N2CCNCC2)cc1 (racemic) [Example 294, 1-[rac-trans-(1,2)-6-fluoro-1-(4-methanesulfonylphenoxy)indan-2-yl]piperazine]
